Experimental data reported in ChEMBL document CHEMBL6182924, “Discovery of a Novel and Potent MET Transcription Inhibitor Targeting Promoter G-Quadruplex for the Treatment of NSCLC” (J Med Chem, 2025).
Calls of active or inactive are those of the source. No cut-off for these calls is given here.

How the values were obtained:
[1] = Acute toxicity in Sprague-Dawley rat assessed as lung damage at 500 to 2000 mg/kg, po measured every 2 days by H and E staining based analysis; format: organism-based; conditions: in vivo, 48 h, dose 500-2000 mg/kg, time 2 day
A549 [2] = assay: Antitumor activity against human A549 cells xenografted in BALB/c mouse assessed as reduction in ki67 expression in tumor at 40 mg/kg, po administered once a day and measured up to 24 days by […] based analysis; format: functional, organism-based; conditions: time <= 24.0 day
[3] = Toxicity in BALB/c mouse xenografted with human A549 cells assessed as liver damage at 20 mg/kg, po administered once a day and measured after 20 days by H and E staining based analysis; format: organism-based; conditions: in vivo, 480 h, time 20 day
[4] = Acute toxicity in Sprague-Dawley rat assessed as spleen damage at 500 to 2000 mg/kg, po measured every 2 days by H and E staining based analysis; format: organism-based; conditions: in vivo, 48 h, dose 500-2000 mg/kg, time 2 day
NCI-H1975 [5] = assay: Induction of cell cycle arrest in human NCI-H1975 cells assessed as accumulation of cells at G1 phase at 1 uM measured for 24 hrs by PI/Rnase staining based flow cytometry (reference value: 79.2 %); format: functional
NCI-H1975 [6] = assay: Induction of apoptosis in human NCI-H1975 cells assessed as early apoptotic cells at 2 uM incubated for 24 hrs by Annexin V-FITC/PI staining based flow cytometry analysis (reference value: 0.35 %); format: functional
A549 [7] = assay: Induction of cell cycle arrest in human A549 cells assessed as accumulation of cells at G2 phase at 1 uM measured for 24 hrs by PI/Rnase staining based flow cytometry (reference value: 13.4 %); format: functional
A549 [8] = assay: Induction of apoptosis in human A549 cells assessed as early apoptotic cells at 0.5 uM incubated for 24 hrs by Annexin V-FITC/PI staining based flow cytometry analysis (reference value: 1.73 %); format: functional
A549 [9] = assay: Induction of apoptosis in human A549 cells assessed as necrotic cells at 1 uM incubated for 24 hrs by Annexin V-FITC/PI staining based flow cytometry analysis (reference value: 4.37 %); format: functional
[10] = Toxicity in BALB/c mouse xenografted with human A549 cells assessed as lung damage at 20 mg/kg, po administered once a day and measured after 20 days by H and E staining based analysis; format: organism-based; conditions: in vivo, 480 h, time 20 day
NCI-H1975 [11] = assay: Induction of apoptosis in human NCI-H1975 cells assessed as early apoptotic cells at 0.5 uM incubated for 24 hrs by Annexin V-FITC/PI staining based flow cytometry analysis (reference value: 0.35 %); format: functional
NCI-H1975 [12] = assay: Inhibition of colony formation in human NCI-H1975 cells incubated for 2 weeks by crystal violet staining based analysis; format: functional, cell-based; conditions: dose 0.5-2 µM

With `COc1cccc(-c2ccc(-c3nc4c5cccnc5c5ncccc5c4[nH]3)o2)c1` the Activity [1] was “Non-toxic”, the Activity (A549 [2]) was “Active” and the Activity [3] was “Non-toxic”. The Activity [4] was “Non-toxic”, the Activity (NCI-H1975 [5]) was 82.1% and the Activity (NCI-H1975 [6]) was 2.21%. It also gave an Activity (A549 [7]) of 10.4%, an Activity (A549 [8]) of 5.09% and an Activity (A549 [9]) of 8.81%. The Activity [10] was “Non-toxic”, the Activity (NCI-H1975 [11]) was 2.01% and the inhibition (NCI-H1975 [12]) was “Dose-dependent-effect”.
